According to patent US4058624A, “Broad spectrum antibacterial compositions containing tris (hydroxymethyl)-aminomethane and diphenyl and loweralkyl substituted diphenyl polyamines” (Merck & Co., Inc., priority 1976, dated 1977):

Test: Acute toxicity, oral LD50 mice (Table I)
Settings: mouse, in vivo
Source text: The low toxicity of these compounds makes them especially attractive for use where contact with skin surfaces or possible ingestion renders the use of irritating or toxic materials inadvisable.

Compound	LD50
Cc1cc(C)c(CCC(CCc2c(C)cc(C)cc2C)NCCCNCCCN)c(C)c1.Cl.Cl.Cl [1-[1,5-di-(2,4,6-trimethylphenyl)-3-pentyl]-1,5,9-triazanonane trihydrochloride]	1150 mg/kg
CC(C)(C)c1ccc(CCCC(CCCc2ccc(C(C)(C)C)cc2)NCCCNCCCNCCCN)cc1.Cl.Cl.Cl.Cl [1-[1,7-bis-(4-t-butylphenyl)-4-heptyl]-1,5,9,13-tetrazatridecane tetrahydrochloride]	1550 mg/kg
Cc1ccc(C(C)(C)C)cc1CCCC(CCCc1cc(C(C)(C)C)ccc1C)NCCNCCNCCN.Cl.Cl.Cl.Cl [1-[1,7-di-(2-methyl-5-t-butylphenyl)-4-heptyl]-1,4,7,10-tetrazadecane tetrahydrochloride]	2070 mg/kg
Cc1ccc(C(C)(C)C)cc1CCCC(CCCc1cc(C(C)(C)C)ccc1C)NCCCNCCCN.Cl.Cl.Cl [1-[1,7-di-(2-methyl-5-t-butylphenyl)-4-heptyl]-1,5,9-triazanonane trihydrochloride]	1650 mg/kg
